Test results as given in US6933302B2, “Nitrogen-based homo-camptothecin derivatives” (California Pacific Medical Center, priority 2002, dated 2005).

Test system: VM46 cells
Test: Cell colony formation assay
Format: cell-based
Settings: 72 hours drug incubation at 37° C., colonies counted after 8 days
Experimental: This example provides directions for growing cells and testing compounds of the invention for their effect on the growth of the cells. All cells can be purchased from DCTDC Tumor Repository, NCI, NIH.
Cell Colony Formation Assay
Five hundred cells (VM46) are plated in 60 mm Petri dishes containing 2.7 ml of medium (modified McCoy's 5a medium containing 10% fetal bovine serum and 100 units/ml penicillin and […]). The cells are incubated in a CO2 incubator at 37° C. for 5 hours for attachment to the bottom of Petri dishes. Drugs are made fresh in medium at ten times the final concentration, and then 0.3 ml of this stock solution is added to the 2.7 ml of medium in the dish. The cells are then incubated with drugs for 72 hours at 37° C. At the end of the incubation the drug-containing media are decanted, the dishes are rinsed with 4 ml of Hank's Balance Salt Solution (HBSS), 5 ml of fresh medium is added, and the dishes are returned to the incubator for colony formation. The cell colonies are counted using colony counter after incubation for 8 days for VM46 cells. Cell survival (%) is calculated .
Values of ID50 (the drug concentration producing 50% inhibition of colony formation) may be determined for each tested compound. Results are shown in Table I for hCPT as a compound of this invention taught in Example 16.

| Structure (SMILES) | Value of ID50 (drug concentration producing 50% inhibition of colony formation) [NM] |
| --- | --- |
| CC[C@@]1(O)CC(=O)OCc2c1cc1n(c2=O)Cc2cc3ccccc3nc2-1 [hCPT, homo-camptothecin] | 4 |
| CCC1(OC(=O)CCN2CCCCC2)CC(=O)OCc2c1cc1n(c2=O)Cc2cc3ccccc3nc2-1 (centres unmarked) [Example 021219, Homocamptothecin-20-O ester of 1-piperidine Propionic Acid] | 3.5 |
